What was measured:
[1] = system: murine pancreatic ductal adenocarcinoma PAN02 PTPN11^G503V; assay: Tumor growth in vivo, PAN02 PTPN11^G503V syngeneic model; design: species or system mouse; settings: single agent
Experimental: The combinatorial effects of Compound SOS1-(C) with RM-006 (also known as RMC-6272) on tumor cell growth in vivo were evaluated in the murine pancreatic ductal adenocarcinoma PAN02 PTPN11^G503V syngeneic model using female C57BL/6J mice (6-7 weeks old). Mice were implanted with PAN02 tumor cells in PBS (5×10^6 cells/mouse) subcutaneously in the flank. Once tumors reached an average size of ˜145 mm^3, mice were randomized to treatment groups to start the administration of test articles or control. SOS1-(C) treatment was administered daily by oral gavage and RM-006 was administered weekly by intra-peritoneal injection. Body weight and tumor volumes (using calipers) were measured twice weekly until study endpoint. Regressions (R) are defined as decrease of 10% or more from initial tumor volume.

[2] = system: LN229 human glioblastoma PTPN11^A72S/WT; assay: Tumor growth in vivo, LN229 PTPN11^A72S/WT glioblastoma CDX model; settings: single agent; 3 mg/kg IP weekly; athymic nude mice
Experimental: The combinatorial effects of Compound SOS1-(C) with RM-006 (also known as RMC-6272) on tumor cell growth in a human model of PTPN11-mutant glioblastoma, LN229 PTPN11^A72S/WT. 6-7 week athymic nude mice were implanted with LN229 in 50% matrigel (10×10^6 cells/mouse) subcutaneously in the flank. Once tumors reached an average size of 200 mm^3, mice were randomized into treatment groups (n=10/group) to start the administration of test articles or control. SOS1-(C) treatment was administered daily by oral gavage and RM-006 was administered weekly by intra-peritoneal injection. Body weight and tumor volume (using calipers) was measured twice weekly until study endpoint.

CO[C@H]1C[C@@H]2CC[C@@H](C)[C@@](O)(O2)C(=O)C(=O)N2CCCC[C@H]2C(=O)O[C@H]([C@H](C)C[C@@H]2CC[C@@H](OC(=O)NCCOCCOCCOCCOCCOCCOCCOCCOCCC(=O)NCCS(=O)(=O)c3ccc(C(=O)N4CCOc5ccc(-c6ccc(N)nc6)cc5C4)c(C)c3F)[C@H](OC)C2)C[C@@H](O)[C@H](C)/C=C(\C)[C@@H](O)[C@@H](OC)C(=O)[C@H](C)C[C@H](C)/C=C/C=CC=C1C [RM-006]
tumor growth inhibition (TGI) ([1]; 3 mg/kg IP weekly, female C57BL/6J mice): 11%
regressions (decrease of 10% or more from initial tumor volume) ([1]; any timepoint in this study): did not induce regressions
tumor growth inhibition (TGI) [2]: 72%

Reference: US20250134891A1, “USE OF SOS1 INHIBITORS WITH MTOR INHIBITORS TO TREAT CANCERS” (Revolution Medicines, Inc., priority 2021, published 2025)
